Experimental data reported in patent US7842671B1, “Peptidomimetic inhibitors of STAT activity and uses thereof” (University of South Florida, priority 2003, dated 2010).
Square brackets hold non-standard residues; d marks the D form. Ends that are not written are not given here. pY = N[C@@H](Cc1ccc(OP(=O)(O)O)cc1)C(=O)O

How the values were obtained:
NIH3T3/v-Src [1] = type: cell-based, mouse; settings: 1 mM, four days
Experimental: (§1) Cell proliferation, soft-agar growth and Apo-BrdU labeling studies. Proliferating fibroblasts and human tumor cells were counted by phase-contrast microscopy for viable cells (using tyrpan blue exclusion). Colony formation assays in six-well dishes and quantification of colonies by iodonitrotetrazolium violet have been previously described (Turkson, J. et al. (1999)). Treatment of cells with inhibitors was initiated 1 day after seeding cells by adding 75 μl of medium with or without inhibitor, and repeated every two to three days. Apoptosis was measured by Apo-BrdU labeling and following the supplier's (PharMingen; San Diego, Calif.) instructions.
(§2) Stat3 has an essential role in cell proliferation, and constitutively-active Stat3 is required for growth of transformed and tumor cells that harbor aberrant Stat3 signaling. Studies were performed to determine the effects of the peptidomimetic-mediated inhibition of Stat3 on cell proliferation using trypan blue exclusion for viable cell counts.

NIH3T3/v-Src [2] = experiment: Apo-BrdU labeling and flow cytometry for apoptotic cells; type: cell-based, mouse; settings: 48 h
Experimental: as §1
(§3) Because one of the functions of Stat3 is to protect transformed or tumor cells from apoptosis (Catlett-Falcone, R. et al. (1999b); Epling-Burnette, P. K. et al. (2001); Grandis, J. R. et al. (2000); Bowman, T. et al. (2000b); Bromberg, J. F. et al. (1999)), the ability of peptidomimetics of the invention (and PY*LKTK-MTS for comparison) (SEQ ID NO. 1) to induce apoptosis in Stat3-dependent transformed fibroblasts was evaluated. Viral Src-transformed NIH3T3/v-Src fibroblasts were treated with or without compounds for 48 h. Treated cells were then labeled with Apo-BrdU (PharMingen; San Diego, Calif.) for detection of DNA breaks.

NIH3T3 = experiment: as above; type: cell-based, mouse; settings: NIH3T3, 1 mM, 48 h, flow cytometry
Experimental: as §1, §3

Stat3 = Stat3 (Mus musculus, UniProt P42227); parameters: nuclear extracts prepared from v-Src-transformed NIH3T3/v-Src; endogenous in cells; host or cells: NIH3T3/v-Src; settings: Turkson J. et al. (2001); cited from earlier work
Stat3, sequence (P42227 whole entry): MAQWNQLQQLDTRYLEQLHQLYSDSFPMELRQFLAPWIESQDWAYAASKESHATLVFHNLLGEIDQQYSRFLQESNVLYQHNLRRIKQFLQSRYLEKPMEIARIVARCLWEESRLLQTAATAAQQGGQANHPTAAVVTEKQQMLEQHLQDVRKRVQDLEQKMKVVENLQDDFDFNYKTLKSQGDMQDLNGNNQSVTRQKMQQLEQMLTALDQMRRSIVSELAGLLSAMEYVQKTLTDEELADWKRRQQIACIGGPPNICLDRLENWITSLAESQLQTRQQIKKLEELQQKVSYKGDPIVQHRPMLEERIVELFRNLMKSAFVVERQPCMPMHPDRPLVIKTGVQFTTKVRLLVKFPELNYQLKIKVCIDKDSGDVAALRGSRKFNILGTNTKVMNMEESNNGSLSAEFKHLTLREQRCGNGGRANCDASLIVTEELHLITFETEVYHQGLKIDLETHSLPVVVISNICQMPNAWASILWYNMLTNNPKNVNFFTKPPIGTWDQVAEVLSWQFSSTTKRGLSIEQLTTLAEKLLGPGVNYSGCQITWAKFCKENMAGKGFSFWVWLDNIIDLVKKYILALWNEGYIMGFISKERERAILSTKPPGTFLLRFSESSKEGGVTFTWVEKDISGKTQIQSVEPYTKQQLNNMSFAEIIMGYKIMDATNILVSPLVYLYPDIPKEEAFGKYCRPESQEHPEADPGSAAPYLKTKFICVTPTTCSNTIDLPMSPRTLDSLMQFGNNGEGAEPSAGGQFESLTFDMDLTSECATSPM

MDA-MB-231 = type: cell-based, human; settings: 1 mM, MDA-MB-231, four days
Experimental: as §1, §2

MDA-MB-435 = type: cell-based, human; settings: 1 mM, MDA-MB-435, four days
Experimental: as §1, §2

In the case of “PY*LKTK-AAVLLPVLLAAP (P[pY]LKTKAAVLLPVLLAAP) [PY*LKTK-MTS]”, the cell proliferation (NIH3T3/v-Src [1]) is reported as “significantly suppresses proliferation”, the “percent of apoptotic cells” value (NIH3T3/v-Src [2]; NIH3T3/v-Src, 1 mM, Apo-BrdU, flow cytometry) is reported as 27.6% and the “incorporated BrdUTP compared to controls (in words)” value (NIH3T3/v-Src [2]; Src-transformed fibroblasts) is reported as “dramatic increases in incorporated BrdUTP”. For the same substance, the “percent of apoptotic cells” value (NIH3T3) was 3.7%, the “constitutive Stat3 activation in Src-transformed fibroblasts” value (Stat3) was “inhibits constitutive Stat3 activation” and the cell proliferation (MDA-MB-231) was “significantly suppresses proliferation”. The cell proliferation (MDA-MB-435) was “significantly suppresses proliferation”.
